The source made the active and inactive calls.
What was measured:
[1] = toxicity toward HepG2 liver cells – cell-based, plate reader, cherry-pick, antagonist series, cytotoxicity control, dose response (AID 743416); assay type: functional
[2] = blockers of bursicon-stimulated LGR2 cAMP reporter – cell-based, HEK293, CRE-luciferase reporter, cherry pick, set 2, dose response (AID 743343); assay type: functional;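 further: transfected cells were stimulated with diluted bursicon conditioned medium after compound addition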
[3] = blockade of melanocortin 4 receptor signaling – cell-based, plate reader, cherry pick, counter-screen for LGR2 antagonist project, dose response (AID 743444); assay type: functional;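 further: transfected HEK 293 cells stimulated with alpha-MSH peptide; potency of inhibitors of the alpha-MSH evoked signal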
[4] = target: T1, Corticotropin-releasing factor receptor 2/Corticotropin-releasing factor-binding protein (Homo sapiens, UniProt P24387+Q13324); assay: Dose Response confirmation of uHTS hits for small molecule antagonists of the CRF-binding protein and CRF-R2 receptor complex.; assay type: functional; details: read-out: IC50_Mean
T1 sequence (Q13324 whole entry): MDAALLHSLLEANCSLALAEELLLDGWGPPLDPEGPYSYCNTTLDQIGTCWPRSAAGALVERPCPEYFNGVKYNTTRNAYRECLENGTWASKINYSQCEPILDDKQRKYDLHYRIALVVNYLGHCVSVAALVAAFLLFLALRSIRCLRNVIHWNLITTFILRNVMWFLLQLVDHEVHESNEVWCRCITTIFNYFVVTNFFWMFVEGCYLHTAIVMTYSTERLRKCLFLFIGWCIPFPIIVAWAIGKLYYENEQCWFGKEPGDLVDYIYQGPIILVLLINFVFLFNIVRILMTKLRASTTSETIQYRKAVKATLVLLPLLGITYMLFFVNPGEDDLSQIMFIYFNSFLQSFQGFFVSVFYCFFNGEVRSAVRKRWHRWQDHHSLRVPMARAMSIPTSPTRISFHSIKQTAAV
T1 sequence (P24387 whole entry): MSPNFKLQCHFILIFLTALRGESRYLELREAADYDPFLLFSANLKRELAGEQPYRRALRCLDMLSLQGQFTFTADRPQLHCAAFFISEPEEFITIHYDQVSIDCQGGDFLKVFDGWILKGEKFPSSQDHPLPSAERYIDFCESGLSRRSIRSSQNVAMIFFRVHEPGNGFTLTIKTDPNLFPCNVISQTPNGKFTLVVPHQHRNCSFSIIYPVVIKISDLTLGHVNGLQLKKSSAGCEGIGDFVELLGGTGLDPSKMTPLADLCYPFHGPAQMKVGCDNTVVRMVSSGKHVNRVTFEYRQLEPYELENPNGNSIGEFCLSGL

[5] = target: T1, Corticotropin-releasing factor receptor 2/Corticotropin-releasing factor-binding protein; assay: activators of CRF receptor 2 with binding protein – uHTS hits, confirmation (AID 602473); assay type: functional; details: read-out: EC50_Mean
[6] = blockers of CRF-binding protein–CRF-R2 complex – cell-based, uHTS hits, 384-well, dose response (AID 651639); assay type: functional, Homo sapiens; details: read-out: IC50_Mean
INS1 = assay: INS-1E survival protection against cytokine death – cell-based, luminescence, retest, dose response (AID 449756); assay type: functional; details: Rattus norvegicus;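 further: cell death triggered by IL-1 beta plus TNF-alpha plus IFN-gamma mixture; protective hits raise ATP signal compared with cytokine alone wells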
[7] = target: Photoreceptor-specific nuclear receptor (Homo sapiens, UniProt Q9Y5X4); assay type: functional, cell-based;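 further: CHO-S cells with Gal4-NCOR and VP16-NR2E3 two-hybrid luciferase reporter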
Galanin receptor type 3 = target: T2, Galanin receptor type 3 (Homo sapiens, UniProt O60755); assay: Fluorescence-based cell-based primary high throughput dose response assay to identify antagonists of the Galanin Receptor 3 (GalR3).; assay type: functional
T2 sequence (O60755 whole entry): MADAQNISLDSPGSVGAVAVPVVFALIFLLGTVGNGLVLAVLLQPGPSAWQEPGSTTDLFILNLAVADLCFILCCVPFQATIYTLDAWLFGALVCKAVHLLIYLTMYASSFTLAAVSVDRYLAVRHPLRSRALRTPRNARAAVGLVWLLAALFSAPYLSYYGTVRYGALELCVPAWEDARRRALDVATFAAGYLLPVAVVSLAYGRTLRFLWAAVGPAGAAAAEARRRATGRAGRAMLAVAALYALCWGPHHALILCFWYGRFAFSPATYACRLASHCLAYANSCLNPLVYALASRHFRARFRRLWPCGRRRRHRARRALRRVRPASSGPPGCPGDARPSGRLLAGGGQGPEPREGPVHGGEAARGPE

cells = assay type: functional, cell-based; details: HEK-CNG
[8] = target: T3, Microphthalmia-associated transcription factor (Homo sapiens, UniProt O75030); assay: reducers of TRPM1 reporter luminescence, concentration series – cell-based, SK-MEL-5, cherry-picked, set 3, MITF inhibitor project, dose response (AID 493073); assay type: functional;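 further: SK-MEL-5 melanoma cells with luciferase driven by the MITF target TRPM1 promoter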
T3 sequence (O75030 whole entry): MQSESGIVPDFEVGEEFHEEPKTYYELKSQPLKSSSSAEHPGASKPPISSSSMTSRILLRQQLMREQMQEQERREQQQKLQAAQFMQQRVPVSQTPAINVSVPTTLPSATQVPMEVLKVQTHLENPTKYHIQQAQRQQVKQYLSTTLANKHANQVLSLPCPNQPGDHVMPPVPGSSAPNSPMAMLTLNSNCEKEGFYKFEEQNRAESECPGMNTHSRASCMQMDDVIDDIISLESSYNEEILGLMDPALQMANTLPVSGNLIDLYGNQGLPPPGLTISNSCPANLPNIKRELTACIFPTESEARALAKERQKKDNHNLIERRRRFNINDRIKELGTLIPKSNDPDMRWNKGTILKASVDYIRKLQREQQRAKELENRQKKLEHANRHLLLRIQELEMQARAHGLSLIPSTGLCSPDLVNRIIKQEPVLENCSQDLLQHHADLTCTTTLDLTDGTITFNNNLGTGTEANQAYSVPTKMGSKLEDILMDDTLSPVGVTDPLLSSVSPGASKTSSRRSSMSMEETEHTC

A-375 = assay: MITF: Counter assay: A375 proliferation Measured in Cell-Based System Using Plate Reader - 2084-03_Inhibitor_Dose_DryPowder_Activity. [Related pubchem assays (depositor defined):AID488944]; assay type: functional; details: Homo sapiens
[9] = A549 cell cytotoxicity, dose response, cytotoxicity control, plate reader, cherry-pick, antagonist series (AID 743412); assay type: functional, cell-based
[10] = target: T4, Heat shock factor protein 1 (Mus musculus, UniProt P38532); assay: decrease of HSF1-responsive luciferase luminescence – cell-based, NIH3T3, dose retest, confirmation (AID 2382); assay type: functional;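 further: NIH3T3 fibroblasts with HSF1-driven luciferase reporter stressed by proteasome inhibitor MG132; luminescence from HSF1-driven luciferase expression after 8 hours of MG132 stress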
T4 sequence (P38532 whole entry): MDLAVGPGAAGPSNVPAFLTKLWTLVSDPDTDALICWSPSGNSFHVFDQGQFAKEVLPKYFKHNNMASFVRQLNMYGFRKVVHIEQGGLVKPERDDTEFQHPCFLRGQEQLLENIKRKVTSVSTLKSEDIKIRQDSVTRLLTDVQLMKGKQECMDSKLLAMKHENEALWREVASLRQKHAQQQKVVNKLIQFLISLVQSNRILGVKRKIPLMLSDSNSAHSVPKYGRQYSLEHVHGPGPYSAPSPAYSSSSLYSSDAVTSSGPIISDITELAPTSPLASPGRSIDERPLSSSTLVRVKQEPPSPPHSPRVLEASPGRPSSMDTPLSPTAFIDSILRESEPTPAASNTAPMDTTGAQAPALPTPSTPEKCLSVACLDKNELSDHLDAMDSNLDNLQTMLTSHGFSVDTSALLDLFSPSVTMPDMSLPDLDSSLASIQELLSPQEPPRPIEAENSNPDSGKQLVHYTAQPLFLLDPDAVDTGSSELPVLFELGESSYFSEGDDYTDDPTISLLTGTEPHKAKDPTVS

HEK293 = assay: EBV LMP1 TES2 canonical NF-kB signalling blockers – cell-based, HEK293, luciferase, cherry-pick, dose response (AID 588343); assay type: functional; details: Homo sapiens
Vero = assay: cells; assay type: functional; details: Chlorocebus sabaeus
[11] = target: T5, Ubiquitin-conjugating enzyme E2 N (Homo sapiens, UniProt P61088); assay type: functional;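 further: Dose-response confirmation in a TR-FRET assay detecting UBC13-driven polyubiquitin chain formation, inhibition measured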
T5 sequence (P61088 whole entry): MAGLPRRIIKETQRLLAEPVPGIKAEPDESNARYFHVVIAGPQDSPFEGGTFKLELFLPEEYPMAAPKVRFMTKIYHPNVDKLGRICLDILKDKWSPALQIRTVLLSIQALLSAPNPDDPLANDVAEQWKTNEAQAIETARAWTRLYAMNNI

[12] = target: T6, DNA repair protein RAD52 homolog (Homo sapiens, UniProt P43351); assay type: functional, biochemical
T6 sequence (P43351 whole entry): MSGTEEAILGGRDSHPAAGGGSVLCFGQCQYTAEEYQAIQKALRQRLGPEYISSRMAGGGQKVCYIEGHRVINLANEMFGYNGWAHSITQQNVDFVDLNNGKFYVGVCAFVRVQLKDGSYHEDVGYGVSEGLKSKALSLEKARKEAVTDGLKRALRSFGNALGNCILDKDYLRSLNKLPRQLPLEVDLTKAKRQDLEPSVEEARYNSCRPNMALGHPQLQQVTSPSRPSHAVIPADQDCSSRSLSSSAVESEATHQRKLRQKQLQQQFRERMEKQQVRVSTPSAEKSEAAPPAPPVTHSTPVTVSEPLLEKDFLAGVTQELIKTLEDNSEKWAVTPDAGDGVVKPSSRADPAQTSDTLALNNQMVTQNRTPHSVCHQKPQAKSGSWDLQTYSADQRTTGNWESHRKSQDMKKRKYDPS

[13] = Luminescence Cell-Based Dose Retest to Confirm Inhibitors of Cancer Stem Cells. [Related pubchem assays (depositor defined):AID2717, AID2721]; assay type: functional; details: Homo sapiens
Nonstructural protein 1 = Nonstructural protein 1 (Influenza A virus, UniProt Q194T2); assay type: functional, Influenza A virus (A/California/07/2009(H1N1))
[14] = reduction of Shn3 3'UTR-driven luciferase in osteoblasts – cell-based, Clone20 osteoblasts, firefly luciferase, cherry-picked, dose response (AID 624132); assay type: functional;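 further: firefly luciferase luminescence from reporter carrying the Shn3 3'UTR in osteoblasts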
[15] = loss of viability in HepG2 cells – cell-based, CellTiter-Glo, cherry-picked, cytotoxicity control for Shn3 inhibitor project, dose response (AID 624134); assay type: functional
[16] = non-specific 3'UTR reporter inhibition in Clone20-Shn3RL – cell-based, Renilla luciferase, cherry-picked, counter-screen for Shn3 inhibitor project, dose response (AID 624133); assay type: functional

Chain of Photoreceptor-specific nuclear receptor (Q9Y5X4 whole entry, the tested form may be a part): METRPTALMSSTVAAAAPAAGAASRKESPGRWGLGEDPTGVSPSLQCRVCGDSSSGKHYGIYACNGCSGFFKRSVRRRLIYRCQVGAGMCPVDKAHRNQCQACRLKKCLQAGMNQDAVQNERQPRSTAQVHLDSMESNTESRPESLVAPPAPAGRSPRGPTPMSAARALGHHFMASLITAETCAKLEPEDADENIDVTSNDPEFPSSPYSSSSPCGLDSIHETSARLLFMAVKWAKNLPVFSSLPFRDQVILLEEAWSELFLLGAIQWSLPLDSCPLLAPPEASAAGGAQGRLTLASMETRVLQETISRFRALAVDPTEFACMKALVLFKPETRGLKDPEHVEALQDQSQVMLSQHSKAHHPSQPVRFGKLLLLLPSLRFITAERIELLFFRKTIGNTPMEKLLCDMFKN
Chain of Nonstructural protein 1 (Q194T2 whole entry): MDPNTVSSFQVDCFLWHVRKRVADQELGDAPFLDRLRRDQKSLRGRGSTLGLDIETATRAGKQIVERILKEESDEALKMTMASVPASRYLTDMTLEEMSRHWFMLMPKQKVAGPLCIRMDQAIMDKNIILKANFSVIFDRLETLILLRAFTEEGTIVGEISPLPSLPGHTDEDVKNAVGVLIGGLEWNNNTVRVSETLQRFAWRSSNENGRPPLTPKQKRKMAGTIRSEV

O=C(O)c1cccc(-c2noc(-c3cccc(Cl)c3)n2)c1
AC50 [1]: > 52 µM (inactive)
AC50 [2]: 5.67 µM (active)
AC50 [3]: 7.56 µM (active)

COc1ccc(S(=O)(=O)N2CCCCCC2)cc1C(=O)N(C)Cc1ccc(C(C)(C)C)cc1
IC50 [4]: 14.6 µM (active)
EC50 [5]: > 53 µM (inactive)
IC50 [6]: 13.5 µM (active)

CCCOc1ccc(CSc2nc3ccccc3[nH]2)cc1
AC50 (INS1): 3.73 µM (active)
IC50 [7]: 4.25 µM (active)
IC50 (Galanin receptor type 3): 2.27 µM (active)
EC50 (cells): > 29.9 µM (inactive)

C=CCC1(CC=C)CCCN1C(=O)c1cc(COc2cncc(Cl)c2)on1
IC50 (Galanin receptor type 3): > 1.11 µM (active)
EC50 (cells): > 29.9 µM (inactive)

COCC1CCCN(C(=O)c2cc(COc3ccc4ncccc4c3)on2)C1 (stereo not drawn)
IC50 (Galanin receptor type 3): 1.3 µM (active)
EC50 (cells): > 29.9 µM (inactive)

O=C(COc1cc(Cl)ccc1Cl)N1CCNC1=O
IC50 [4]: 27.4 µM (active)
EC50 [5]: > 53 µM (inactive)
IC50 [6]: 8.63 µM (active)

COC(=O)c1ccc(Nc2cc(C)nc3ccc(C)cc23)cc1
AC50 [8]: 6.85 µM (active)
AC50 (A-375): 36.8 µM (active)
AC50 [9]: 4.31 µM (active)
AC50 [1]: 13.2 µM (active)

CC(C)(C)c1ccc(Cn2c(=O)cnc3ccccc32)cc1
EC50 [10]: 2.27 µM (active)
AC50 (HEK293): 6.93 µM (active)
AC50 [9]: 12.6 µM (active)
AC50 [1]: 29.4 µM (active)
AC50 [2]: 38 µM (active)

CCc1cc(OCCCSc2nc(C)cc(O)n2)ccc1Cl
CC50 (Vero): 2.36 µM (active)
IC50 [7]: 3.02 µM (active)

Fc1ccccc1CSc1nnnn1-c1ccc2c(c1)OCO2
IC50 [4]: 15.6 µM (active)
EC50 [5]: > 53 µM (inactive)
IC50 [6]: > 20 µM (inactive)

CN(C(=O)Oc1ccc(C(=O)c2ccc(Cl)cc2)cc1)c1ccccc1
IC50 [4]: < 0.368 µM (active)
EC50 [5]: > 53 µM (inactive)
IC50 [6]: > 20 µM (inactive)

CCOc1ccc(-n2c(SCC(=O)NCc3ccco3)nc3c4ccccc4nc-3c2O)cc1
IC50 [4]: 3.76 µM (active)
EC50 [5]: > 53 µM (inactive)
IC50 [6]: 15 µM (active)

CC[C@@H](C)[C@@H]1CN([C@@H](CN2CCC[C@H]2CN2C(N)=NC[C@H]2CC(C)C)C(C)C)C(=N)N1CCc1ccc(Cl)c(Cl)c1
IC50 [11]: > 20 µM (inactive)
IC50 [4]: 2.82 µM (active)
EC50 [5]: 42.3 µM (active)
IC50 [6]: 7.1 µM (active)
AC50 [12]: 17.3 µM (active)

CSc1ccc(C(=O)C2CCCN(C(=O)CCc3c(C)nn(C)c3C)C2)cc1 (stereo not drawn)
IC50 (Galanin receptor type 3): 1.15 µM (active)
EC50 (cells): > 29.9 µM (inactive)

COCCCNC(=S)N1CCN(c2nc(-c3ccc(Cl)cc3)cs2)CC1
IC50 [7]: 4.25 µM (active)

O=C(O)C1OC1(c1ccccc1Cl)c1ccccc1Cl (stereo not drawn)
IC50 [4]: 23.4 µM (active)
EC50 [5]: > 53 µM (inactive)
IC50 [6]: > 20 µM (inactive)

COc1ccc(C)cc1NC(=O)NC1CC(=O)N(c2ccc3c(c2)OCCO3)C1 (stereo not drawn)
IC50 [7]: 3.25 µM (active)

FC(F)(F)c1ccccc1Cc1c(-c2ccco2)nc2c3ccccc3ccn12
IC50 (Galanin receptor type 3): 13 µM (inactive)
EC50 (cells): > 29.9 µM (inactive)

Clc1cc2cccnc2c2ncccc12
AC50 [13]: 4.73 µM (active)
IC50 (Nonstructural protein 1): 3.44 µM (active)
AC50 (INS1): 6.84 µM (active)
AC50 [14]: 4.06 µM (active)
AC50 [15]: 5.34 µM (active)
AC50 [16]: 3.94 µM (active)
IC50 [7]: 5.53 µM (active)

— ChEMBL document CHEMBL1201862, “PubChem BioAssay data set” (2004)
